Measurements from patent US20250283124A1, “POLYHYDROXYALKANOATE-PRODUCING BACTERIA AND METHODS FOR MAKING AND USING THEM” (SAN DIEGO STATE UNIVERSITY (SDSU) FOUNDATION, DBA SAN DIEGO …, priority 2021, published 2025).

Test system: LW8
Experiment: Antibiotic susceptibility testing (antibiotic disks), strain LW8
Assay type: cell-based, Methylosinus sp.
Conditions: antibiotic disks on solid P0% media, methane:air, one week, disk content as in column head
Method: Antibiotic Resistance Tests: To identify genetic markers suitable for genetic manipulation of PHA producing cultures, an antibiotic-resistance screening using antibiotic disks was performed. All strains were plated onto solid P0% media by spreading, then up to 4 antibiotic disks were placed on top. The plates were incubated under methane:air for one week and then were evaluated.

[H]/N=C(/N)N[C@H]1[C@H](O)[C@@H](O)[C@H](O[C@@H]2O[C@@H](C)[C@](O)(C=O)[C@H]2O[C@@H]2O[C@@H](CO)[C@H](O)[C@@H](O)[C@@H]2NC)[C@@H](N/C(N)=N\[H])[C@@H]1O [Streptomycin]
Antibiotic susceptibility testing (AST) results: Resistant
